Test results: EP0672419A1, “BLOOD PRESSURE REGULATOR” (Asahi Kasei Kogyo Kabushiki Kaisha, priority 1991, dated 1995)

Test system: Adult mongrel dog
Assay: Induced hypotension in halothane-anesthetized dog, mean arterial pressure kept at 50 mmHg for 60 min (Example 5)
Type: in vivo
Description: Adult mongrel dog, mean body weight 12.7 ± 3.1 kg, was anesthesized with pentobarbital 25 mg/kg, intratarcheally cannulated and maintained anesthetic condition by 0.87% halothane-oxygen (1 MAC, minimum anesthetic concentration). Respiration was controlled, by using respirator (Harvard Corp., Model 613E ) at Paco₂ 35±5 mmHg.
Catheters were introduced to right femoral vein and artery for monitering arterial blood pressure, arterial blood gas analysis and infusion, and left cardiac catheter was introduced to left femoral […] to monitor left ventricular pressure. The changes in left ventricular pressure were differentiated continuously using a pressure processor (Nihon Koden Co., EQ-601G) to measure a maximum left ventricular systolic ratio (LV dp/dt max). The active ingredient of the present invention was administered to left femoral vein. Pulmonary arterial catheter (7F, Swan-Ganz® catheter) was introduced through right external jugular vein to monitor pulmonary artery pressure (PAP), paulmonary arterial wedge pressure (pulmonary capillary wedge pressure, PCWP) and cardiac output (CO). Pressure was monitored by using disporsable pressure monitoring kit (Gould Corp.), and electrocardiogram, arteriala pressure, left ventricle pressure (LVP) and maximum left ventricular systolic ratio (LV dp/dt max) were monitored by polygraph (Nihon Koden Co.) . Cardiac output (CO) was measured by thermal dilution method using cardiac output monitor (Nihon Koden Co Model MTC6210). Blood gas analysis was made by using automatic blood gas analyser (Radiometer Corp. ABL3). Mean artery pressure (MAP), cardiac index(CI) stroke volume index (SI), systemic vascular resistance (SVR), pulmonary vascular resistance (PVR), left ventricle stroke work index (LVSWI) and coronary perfusion pressure (CPP) were calculated by standard calculation equations, respectively.
To maintain low blood pressure, the active ingredient was intraveneously administered for 60 minutes with maintaining maximum dose at 40 µg/kg and adjusting to maintain mean arteraial pressure at 50 mmHg. Physiological saline was used for maintenance infusion and administered in combination with the active ingredient at 7 ml/kg/hr. At blood sampling two fold volume of hydroxyethylstarch (6-HES) was supplementary administered. Body temperature was maintained at 37 ± 1°C by covering with blanket.
A value at time are than 60 minutes passed after completing the start of the experiment and stabilizing a depth of anesthesia and blood flow, is set as control (S₁). Monitorings were performed at 5 min., 30 min. and 60 min. under reduced blood pressure in induced hypotension, and at 10 min., 30 min. and 60 min. after terminating the reduced blood pressure in induced hypotension (after stopping administration), for totally seven points of time.

[1] = after administration 5min., i.v., MAP kept at 50 mmHg
[2] = after administration 30min., i.v., MAP kept at 50 mmHg
[3] = after administration 60min., i.v., MAP kept at 50 mmHg
[4] = after terminating administration 10min.
[5] = after terminating administration 30min.
[6] = after terminating administration 60min.

desalanyl-deamino-c-CGRP
CI: Cardiac index [1]: 4.65 1/min/m² | CO: Cardiac output [1]: 3.67 min⁻¹ | CPP: Coronary perfusion pressure [1]: 45 mmHg | CVP: Central venous pressure [1]: 4 mmHg | DAP: Diastolic artery pressure [1]: 50 mmHg | DPAP: Diastolic pulmonary artery pressure [1]: 7 mmHg | EtCO₂: Expiration terminal CO₂ pressure [1]: 37 mmHg | HR: Heart rate [1]: 143 beat/min | LV dp/dt max: maximum left ventricular systolic ratio [1]: 3000 mmHg/sec | LVEP: Left ventricle end pressure [1]: 0 mmHg | LVP: Left ventricle pressure [1]: 102 mmHg | LVSWI: Left ventricle stroke work index [1]: 26.5 g.m/beat/m² | MAP: Mean artery pressure [1]: 65 mmHg | MPAP: Mean pulmonary artery pressure [1]: 16 mmHg | PCWP: Pulmonary capillary wedge pressure [1]: 5 mmHg | PVR: Pulmonary vascular resistance [1]: 255 dynes · sec/cm⁵ | RPP: Rate pressure products [1]: 13200 mmHg.beat/min | RVSWI: Right ventricle stroke work index [1]: 5.30 g.m/beat/m² | SAP: Systolic artery pressure [1]: 93 mmHg | SI: Stroke index [1]: 32.5 ml/HR/m² | SPAP: Systolic pulmonary artery pressure [1]: 29 mmHg | SV: Stroke volumes [1]: 24 mL/beat | SVR: Systemic vascular resistance [1]: 1410 dynes · sec/cm⁵ | CI: Cardiac index [2]: 4.24 1/min/m² | CO: Cardiac output [2]: 3.40 min⁻¹ | CPP: Coronary perfusion pressure [2]: 29 mmHg | CVP: Central venous pressure [2]: 4 mmHg | DAP: Diastolic artery pressure [2]: 34 mmHg | DPAP: Diastolic pulmonary artery pressure [2]: 5 mmHg | EtCO₂: Expiration terminal CO₂ pressure [2]: 35 mmHg | HR: Heart rate [2]: 132 beat/min | LV dp/dt max: maximum left ventricular systolic ratio [2]: 2600 mmHg/sec | LVEP: Left ventricle end pressure [2]: 0 mmHg | LVP: Left ventricle pressure [2]: 86 mmHg | LVSWI: Left ventricle stroke work index [2]: 19.7 g.m/beat/m² | MAP: Mean artery pressure [2]: 50 mmHg | MPAP: Mean pulmonary artery pressure [2]: 12 mmHg | PCWP: Pulmonary capillary wedge pressure [2]: 5 mmHg | PVR: Pulmonary vascular resistance [2]: 177 dynes · sec/cm⁵ | RPP: Rate pressure products [2]: 7650 mmHg.beat/min | RVSWI: Right ventricle stroke work index [2]: 3.50 g.m/beat/m² | SAP: Systolic artery pressure [2]: 58 mmHg | SI: Stroke index [2]: 32.2 ml/HR/m² | SPAP: Systolic pulmonary artery pressure [2]: 24 mmHg | SV: Stroke volumes [2]: 23.8 mL/beat | SVR: Systemic vascular resistance [2]: 1160 dynes · sec/cm⁵ | CI: Cardiac index [3]: 4.95 1/min/m² | CO: Cardiac output [3]: 3.75 min⁻¹ | CPP: Coronary perfusion pressure [3]: 37 mmHg | CVP: Central venous pressure [3]: 4 mmHg | DAP: Diastolic artery pressure [3]: 43 mmHg | DPAP: Diastolic pulmonary artery pressure [3]: 7 mmHg | EtCO₂: Expiration terminal CO₂ pressure [3]: 34 mmHg | HR: Heart rate [3]: 138 beat/min | LV dp/dt max: maximum left ventricular systolic ratio [3]: 2600 mmHg/sec | LVEP: Left ventricle end pressure [3]: 0 mmHg | LVP: Left ventricle pressure [3]: 95 mmHg | LVSWI: Left ventricle stroke work index [3]: 23.4 g.m/beat/m² | MAP: Mean artery pressure [3]: 50 mmHg | MPAP: Mean pulmonary artery pressure [3]: 15 mmHg | PCWP: Pulmonary capillary wedge pressure [3]: 6 mmHg | PVR: Pulmonary vascular resistance [3]: 196 dynes · sec/cm⁵ | RPP: Rate pressure products [3]: 8000 mmHg.beat/min | RVSWI: Right ventricle stroke work index [3]: 5.37 g.m/beat/m² | SAP: Systolic artery pressure [3]: 58 mmHg | SI: Stroke index [3]: 35.9 ml/HR/m² | SPAP: Systolic pulmonary artery pressure [3]: 27 mmHg | SV: Stroke volumes [3]: 26.5 mL/beat | SVR: Systemic vascular resistance [3]: 1090 dynes · sec/cm⁵ | CI: Cardiac index [4]: 4.33 1/min/m² | CO: Cardiac output [4]: 3.33 min⁻¹ | CPP: Coronary perfusion pressure [4]: 41 mmHg | CVP: Central venous pressure [4]: 4 mmHg | DAP: Diastolic artery pressure [4]: 49 mmHg | DPAP: Diastolic pulmonary artery pressure [4]: 7 mmHg | EtCO₂: Expiration terminal CO₂ pressure [4]: 32 mmHg | HR: Heart rate [4]: 136 beat/min | LV dp/dt max: maximum left ventricular systolic ratio [4]: 3000 mmHg/sec | LVEP: Left ventricle end pressure [4]: 0 mmHg | LVP: Left ventricle pressure [4]: 110 mmHg | LVSWI: Left ventricle stroke work index [4]: 21.7 g.m/beat/m² | MAP: Mean artery pressure [4]: 58 mmHg | MPAP: Mean pulmonary artery pressure [4]: 15 mmHg | PCWP: Pulmonary capillary wedge pressure [4]: 8 mmHg | PVR: Pulmonary vascular resistance [4]: 174 dynes · sec/cm⁵ | RPP: Rate pressure products [4]: 9240 mmHg.beat/min | RVSWI: Right ventricle stroke work index [4]: 4.77 g.m/beat/m² | SAP: Systolic artery pressure [4]: 68 mmHg | SI: Stroke index [4]: 31.9 ml/HR/m² | SPAP: Systolic pulmonary artery pressure [4]: 26 mmHg | SV: Stroke volumes [4]: 23.6 mL/beat | SVR: Systemic vascular resistance [4]: 1340 dynes · sec/cm⁵ | CI: Cardiac index [5]: 4.07 1/min/m² | CO: Cardiac output [5]: 3.14 min⁻¹ | CPP: Coronary perfusion pressure [5]: 46 mmHg | CVP: Central venous pressure [5]: 4 mmHg | DAP: Diastolic artery pressure [5]: 53 mmHg | DPAP: Diastolic pulmonary artery pressure [5]: 8 mmHg | EtCO₂: Expiration terminal CO₂ pressure [5]: 30 mmHg | HR: Heart rate [5]: 138 beat/min | LV dp/dt max: maximum left ventricular systolic ratio [5]: 3000 mmHg/sec | LVEP: Left ventricle end pressure [5]: 0 mmHg | LVP: Left ventricle pressure [5]: 110 mmHg | LVSWI: Left ventricle stroke work index [5]: 23.7 g.m/beat/m² | MAP: Mean artery pressure [5]: 66 mmHg | MPAP: Mean pulmonary artery pressure [5]: 15 mmHg | PCWP: Pulmonary capillary wedge pressure [5]: 7 mmHg | PVR: Pulmonary vascular resistance [5]: 211 dynes · sec/cm⁵ | RPP: Rate pressure products [5]: 10900 mmHg.beat/min | RVSWI: Right ventricle stroke work index [5]: 4.42 g.m/beat/m² | SAP: Systolic artery pressure [5]: 79 mmHg | SI: Stroke index [5]: 29.5 ml/HR/m² | SPAP: Systolic pulmonary artery pressure [5]: 25 mmHg | SV: Stroke volumes [5]: 21.8 mL/beat | SVR: Systemic vascular resistance [5]: 1640 dynes · sec/cm⁵ | CI: Cardiac index [6]: 4.14 1/min/m² | CO: Cardiac output [6]: 3.07 min⁻¹ | CPP: Coronary perfusion pressure [6]: 54 mmHg | CVP: Central venous pressure [6]: 6 mmHg | DAP: Diastolic artery pressure [6]: 61 mmHg | DPAP: Diastolic pulmonary artery pressure [6]: 8 mmHg | EtCO₂: Expiration terminal CO₂ pressure [6]: 30 mmHg | HR: Heart rate [6]: 134 beat/min | LV dp/dt max: maximum left ventricular systolic ratio [6]: 3000 mmHg/sec | LVEP: Left ventricle end pressure [6]: 0 mmHg | LVP: Left ventricle pressure [6]: 111 mmHg | LVSWI: Left ventricle stroke work index [6]: 31.1 g.m/beat/m² | MAP: Mean artery pressure [6]: 95 mmHg | MPAP: Mean pulmonary artery pressure [6]: 16 mmHg | PCWP: Pulmonary capillary wedge pressure [6]: 7 mmHg | PVR: Pulmonary vascular resistance [6]: 234 dynes · sec/cm⁵ | RPP: Rate pressure products [6]: 13600 mmHg.beat/min | RVSWI: Right ventricle stroke work index [6]: 4.21 g.m/beat/m² | SAP: Systolic artery pressure [6]: 102 mmHg | SI: Stroke index [6]: 30.9 ml/HR/m² | SPAP: Systolic pulmonary artery pressure [6]: 26 mmHg | SV: Stroke volumes [6]: 22.9 mL/beat | SVR: Systemic vascular resistance [6]: 1950 dynes · sec/cm⁵
